One assay has as its target Aurora kinase B (Homo sapiens, UniProt Q96GD4). To be noted: at 10 µM.
The target in assay [1] is Cyclin-dependent kinase 11B (Homo sapiens) (UniProt P21127). The assay is described as follows: Selectivity interaction (KinomeScan (DiscoverX)) EUB0001049a CDK11B. Particulars: at 1 µM.
Assay [2] addresses T1, Ephrin type-A receptor 3 (Homo sapiens) (UniProt P29320).
T1 sequence (whole entry): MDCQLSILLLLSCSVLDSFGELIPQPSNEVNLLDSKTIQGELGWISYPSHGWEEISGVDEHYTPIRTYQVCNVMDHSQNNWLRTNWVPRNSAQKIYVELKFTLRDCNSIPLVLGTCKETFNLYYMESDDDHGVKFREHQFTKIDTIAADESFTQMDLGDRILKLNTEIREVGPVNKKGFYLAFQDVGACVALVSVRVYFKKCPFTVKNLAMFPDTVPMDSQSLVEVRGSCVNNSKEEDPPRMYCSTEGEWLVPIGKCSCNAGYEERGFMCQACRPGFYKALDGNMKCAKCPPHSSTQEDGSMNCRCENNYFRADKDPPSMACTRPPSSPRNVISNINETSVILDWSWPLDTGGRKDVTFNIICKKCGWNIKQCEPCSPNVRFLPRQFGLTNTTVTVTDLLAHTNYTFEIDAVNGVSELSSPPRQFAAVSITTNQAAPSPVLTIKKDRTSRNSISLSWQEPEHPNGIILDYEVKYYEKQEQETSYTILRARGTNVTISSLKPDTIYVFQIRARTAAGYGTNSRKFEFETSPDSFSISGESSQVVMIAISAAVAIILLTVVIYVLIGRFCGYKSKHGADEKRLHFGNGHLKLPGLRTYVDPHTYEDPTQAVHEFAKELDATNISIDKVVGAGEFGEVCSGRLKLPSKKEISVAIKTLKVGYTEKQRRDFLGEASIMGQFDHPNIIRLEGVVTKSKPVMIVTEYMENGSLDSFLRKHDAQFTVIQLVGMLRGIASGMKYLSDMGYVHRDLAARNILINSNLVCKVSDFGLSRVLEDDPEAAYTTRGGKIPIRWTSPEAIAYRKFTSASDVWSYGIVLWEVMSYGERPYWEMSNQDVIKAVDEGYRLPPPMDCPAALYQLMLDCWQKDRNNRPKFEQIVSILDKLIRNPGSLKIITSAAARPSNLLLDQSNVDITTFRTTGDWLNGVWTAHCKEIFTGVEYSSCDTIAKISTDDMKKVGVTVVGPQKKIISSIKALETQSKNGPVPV
The assay is described as follows: Selectivity interaction (LanthaScreen Eu Kinase Binding Assay) EUB0001632a EPHA3. Particulars: at 10 µM. A general note: Time-resolved FRET reads energy transfer from a long-lived donor to a nearby acceptor.

In a further assay the target is Ephrin type-A receptor 4 (Homo sapiens, UniProt P54764). The assay is described as follows: Selectivity interaction (Kinase panel (Z-LYTE Assay)) EUB0001632a EPHA4. Particulars: at 10 µM.
For assay [3], the target named is T2, Serine/threonine-protein kinase 17A (Homo sapiens) (UniProt Q9UEE5).
T2 sequence (whole entry): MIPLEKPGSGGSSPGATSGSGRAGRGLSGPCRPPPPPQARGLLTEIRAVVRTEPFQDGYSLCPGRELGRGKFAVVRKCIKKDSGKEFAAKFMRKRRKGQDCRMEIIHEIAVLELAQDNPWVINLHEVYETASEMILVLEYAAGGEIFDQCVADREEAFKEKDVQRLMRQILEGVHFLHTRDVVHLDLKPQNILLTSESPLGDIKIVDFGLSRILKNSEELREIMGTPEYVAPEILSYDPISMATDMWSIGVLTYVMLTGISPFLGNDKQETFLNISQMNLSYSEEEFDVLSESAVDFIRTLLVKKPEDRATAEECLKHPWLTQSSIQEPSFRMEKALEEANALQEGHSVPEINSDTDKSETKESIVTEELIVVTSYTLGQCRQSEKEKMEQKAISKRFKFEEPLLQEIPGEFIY
The assay is described as follows: Selectivity interaction (LanthaScreen Eu Kinase Binding Assay) EUB0001632a STK17A. Particulars: at 10 µM.

In assay [4] the target is Serine/threonine-protein kinase MARK2 (Homo sapiens) (UniProt Q7KZI7). The assay is described as follows: Selectivity interaction (ActivX KiNativ screen (kinase selectivity in THP-1 cell lysates)) EUB0000639a MARK2. Particulars: lysate, at 0.04 µM. In kind it is subcellular.
For assay [5], the target named is Serine/threonine-protein kinase SIK3 (Homo sapiens) (UniProt Q9Y2K2). The assay is described as follows: Selectivity interaction (KinomeScan (DiscoverX)) EUB0000595a SIK3. To be noted: at 10 µM.
In assay [6] the target is 5'-AMP-activated protein kinase catalytic subunit alpha-1 (Homo sapiens, UniProt Q13131). The assay is described as follows: Selectivity interaction (KinomeScan (DiscoverX)) EUB0001619a PRKAA1. Particulars: at 1 µM.
For assay [7], the target named is T3, Serine/threonine-protein kinase tousled-like 1 (Homo sapiens) (UniProt Q9UKI8).
T3 sequence (whole entry): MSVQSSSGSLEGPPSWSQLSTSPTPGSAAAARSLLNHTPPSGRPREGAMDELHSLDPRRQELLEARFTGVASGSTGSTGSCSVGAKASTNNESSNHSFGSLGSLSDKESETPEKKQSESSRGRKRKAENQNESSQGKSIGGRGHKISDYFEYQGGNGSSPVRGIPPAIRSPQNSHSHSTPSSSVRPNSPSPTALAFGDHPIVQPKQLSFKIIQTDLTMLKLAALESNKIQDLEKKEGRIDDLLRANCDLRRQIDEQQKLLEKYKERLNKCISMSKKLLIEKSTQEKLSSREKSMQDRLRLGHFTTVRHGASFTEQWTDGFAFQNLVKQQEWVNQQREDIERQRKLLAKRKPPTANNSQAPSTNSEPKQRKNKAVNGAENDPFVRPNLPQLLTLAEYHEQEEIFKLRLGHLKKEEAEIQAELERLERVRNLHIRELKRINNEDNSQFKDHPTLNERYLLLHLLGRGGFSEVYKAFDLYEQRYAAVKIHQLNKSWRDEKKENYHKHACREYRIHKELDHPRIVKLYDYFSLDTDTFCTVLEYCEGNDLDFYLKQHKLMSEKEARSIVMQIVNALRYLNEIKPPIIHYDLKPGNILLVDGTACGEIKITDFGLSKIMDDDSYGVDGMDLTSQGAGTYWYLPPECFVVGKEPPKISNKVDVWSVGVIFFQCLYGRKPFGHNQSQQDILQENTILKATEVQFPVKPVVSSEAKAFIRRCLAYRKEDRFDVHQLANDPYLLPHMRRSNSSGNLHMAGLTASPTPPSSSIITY
The assay is described as follows: Selectivity interaction (Kinase panel (KiNativ target engagement assay in Jurkat cells)) EUB0001635a TLK1. It is filed as cell-based. To be noted: at 1 µM.

The text below walks through data of ChEMBL document CHEMBL5465560, “Selectivity Literature for EUbOPEN Chemogenomic Library” (2024).

Chain of Ephrin type-A receptor 4 (P54764 whole entry): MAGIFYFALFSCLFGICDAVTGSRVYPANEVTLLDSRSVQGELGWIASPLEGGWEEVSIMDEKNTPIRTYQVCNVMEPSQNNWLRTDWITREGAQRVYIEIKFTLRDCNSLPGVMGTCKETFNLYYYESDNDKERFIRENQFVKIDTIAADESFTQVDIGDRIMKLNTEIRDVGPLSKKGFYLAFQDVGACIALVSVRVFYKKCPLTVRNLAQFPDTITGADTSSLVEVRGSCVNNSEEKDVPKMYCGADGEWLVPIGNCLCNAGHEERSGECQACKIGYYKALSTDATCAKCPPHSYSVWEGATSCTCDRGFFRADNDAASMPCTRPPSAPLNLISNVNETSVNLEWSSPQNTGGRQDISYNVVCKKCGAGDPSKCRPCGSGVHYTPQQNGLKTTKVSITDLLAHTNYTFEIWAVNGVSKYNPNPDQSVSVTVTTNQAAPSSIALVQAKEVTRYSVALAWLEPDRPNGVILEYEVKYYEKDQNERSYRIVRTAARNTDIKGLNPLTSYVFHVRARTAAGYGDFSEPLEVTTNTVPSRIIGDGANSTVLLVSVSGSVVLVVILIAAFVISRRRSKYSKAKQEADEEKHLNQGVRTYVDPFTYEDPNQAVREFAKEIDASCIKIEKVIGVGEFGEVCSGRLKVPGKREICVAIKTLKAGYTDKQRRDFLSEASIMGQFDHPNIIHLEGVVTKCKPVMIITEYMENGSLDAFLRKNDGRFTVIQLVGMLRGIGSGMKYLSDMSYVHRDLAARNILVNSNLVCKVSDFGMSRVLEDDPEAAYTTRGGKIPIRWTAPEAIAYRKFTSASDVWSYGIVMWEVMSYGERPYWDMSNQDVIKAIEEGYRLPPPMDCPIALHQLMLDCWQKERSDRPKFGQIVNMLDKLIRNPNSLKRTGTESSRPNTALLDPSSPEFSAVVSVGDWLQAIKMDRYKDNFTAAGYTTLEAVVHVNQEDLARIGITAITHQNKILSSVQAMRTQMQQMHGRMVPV
Chain of Serine/threonine-protein kinase SIK3 (Homo sapiens) (Q9Y2K2 whole entry, looked up): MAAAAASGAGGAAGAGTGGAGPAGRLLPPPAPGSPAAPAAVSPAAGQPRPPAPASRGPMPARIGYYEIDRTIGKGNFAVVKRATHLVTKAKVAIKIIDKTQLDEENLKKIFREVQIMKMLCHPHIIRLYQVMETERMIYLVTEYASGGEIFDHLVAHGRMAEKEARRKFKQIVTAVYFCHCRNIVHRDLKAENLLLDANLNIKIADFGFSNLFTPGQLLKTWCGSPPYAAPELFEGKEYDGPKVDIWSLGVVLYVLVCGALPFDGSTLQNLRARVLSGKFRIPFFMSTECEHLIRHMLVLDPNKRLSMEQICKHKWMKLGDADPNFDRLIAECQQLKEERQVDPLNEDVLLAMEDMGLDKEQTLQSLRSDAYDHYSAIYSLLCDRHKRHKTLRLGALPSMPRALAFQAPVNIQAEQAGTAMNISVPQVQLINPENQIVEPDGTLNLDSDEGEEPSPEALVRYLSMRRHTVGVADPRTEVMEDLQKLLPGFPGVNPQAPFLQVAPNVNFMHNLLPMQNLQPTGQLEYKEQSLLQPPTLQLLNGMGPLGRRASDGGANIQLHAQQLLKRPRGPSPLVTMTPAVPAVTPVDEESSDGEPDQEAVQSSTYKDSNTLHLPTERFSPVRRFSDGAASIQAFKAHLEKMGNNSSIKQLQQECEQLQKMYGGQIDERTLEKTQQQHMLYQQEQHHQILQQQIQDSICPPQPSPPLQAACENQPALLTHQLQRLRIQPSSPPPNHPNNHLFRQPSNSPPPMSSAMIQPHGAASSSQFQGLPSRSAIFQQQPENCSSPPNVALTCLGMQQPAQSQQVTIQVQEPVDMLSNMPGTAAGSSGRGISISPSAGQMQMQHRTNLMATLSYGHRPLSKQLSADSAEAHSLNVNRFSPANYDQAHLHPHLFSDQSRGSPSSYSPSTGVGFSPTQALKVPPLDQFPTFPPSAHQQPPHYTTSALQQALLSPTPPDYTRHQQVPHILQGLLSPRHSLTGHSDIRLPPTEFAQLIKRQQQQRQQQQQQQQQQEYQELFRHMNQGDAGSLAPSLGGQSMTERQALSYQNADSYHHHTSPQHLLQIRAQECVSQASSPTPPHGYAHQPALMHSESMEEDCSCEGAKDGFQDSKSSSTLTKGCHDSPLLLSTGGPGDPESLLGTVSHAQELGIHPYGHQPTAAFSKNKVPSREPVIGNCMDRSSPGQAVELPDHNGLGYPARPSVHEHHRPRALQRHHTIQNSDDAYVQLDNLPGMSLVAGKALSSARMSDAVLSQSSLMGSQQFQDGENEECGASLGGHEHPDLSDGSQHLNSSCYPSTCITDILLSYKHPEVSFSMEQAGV
Chain of Aurora kinase B (Q96GD4 whole entry): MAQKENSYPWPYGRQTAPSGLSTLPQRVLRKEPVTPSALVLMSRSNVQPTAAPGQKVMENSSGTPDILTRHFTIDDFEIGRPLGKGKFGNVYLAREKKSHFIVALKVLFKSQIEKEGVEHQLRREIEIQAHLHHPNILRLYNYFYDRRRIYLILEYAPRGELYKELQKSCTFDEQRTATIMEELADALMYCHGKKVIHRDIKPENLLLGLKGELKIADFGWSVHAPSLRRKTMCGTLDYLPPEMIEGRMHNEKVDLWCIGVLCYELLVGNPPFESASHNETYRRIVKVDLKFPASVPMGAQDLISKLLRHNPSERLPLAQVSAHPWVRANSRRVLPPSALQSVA
Chain of Serine/threonine-protein kinase MARK2 (Homo sapiens) (Q7KZI7 whole entry): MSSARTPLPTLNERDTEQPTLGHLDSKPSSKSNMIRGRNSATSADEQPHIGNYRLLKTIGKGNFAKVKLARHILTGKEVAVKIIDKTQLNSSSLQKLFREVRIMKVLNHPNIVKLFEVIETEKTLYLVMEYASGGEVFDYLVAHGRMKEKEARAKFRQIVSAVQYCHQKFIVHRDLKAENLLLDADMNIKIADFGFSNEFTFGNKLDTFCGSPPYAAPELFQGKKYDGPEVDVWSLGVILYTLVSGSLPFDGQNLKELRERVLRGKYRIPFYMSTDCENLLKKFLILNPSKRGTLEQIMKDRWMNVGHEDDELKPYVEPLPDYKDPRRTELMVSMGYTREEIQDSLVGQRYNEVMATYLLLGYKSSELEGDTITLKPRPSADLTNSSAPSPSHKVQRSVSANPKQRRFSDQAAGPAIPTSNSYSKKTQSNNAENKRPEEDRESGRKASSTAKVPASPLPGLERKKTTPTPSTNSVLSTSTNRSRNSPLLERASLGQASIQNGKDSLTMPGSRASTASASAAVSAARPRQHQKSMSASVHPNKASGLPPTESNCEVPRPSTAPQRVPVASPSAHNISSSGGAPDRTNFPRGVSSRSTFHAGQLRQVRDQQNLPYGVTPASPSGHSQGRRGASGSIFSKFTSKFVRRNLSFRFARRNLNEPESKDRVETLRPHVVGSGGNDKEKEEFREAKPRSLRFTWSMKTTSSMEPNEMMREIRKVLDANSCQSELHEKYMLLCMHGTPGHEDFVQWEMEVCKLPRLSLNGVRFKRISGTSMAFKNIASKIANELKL
Chain of Cyclin-dependent kinase 11B (Homo sapiens) (P21127 whole entry): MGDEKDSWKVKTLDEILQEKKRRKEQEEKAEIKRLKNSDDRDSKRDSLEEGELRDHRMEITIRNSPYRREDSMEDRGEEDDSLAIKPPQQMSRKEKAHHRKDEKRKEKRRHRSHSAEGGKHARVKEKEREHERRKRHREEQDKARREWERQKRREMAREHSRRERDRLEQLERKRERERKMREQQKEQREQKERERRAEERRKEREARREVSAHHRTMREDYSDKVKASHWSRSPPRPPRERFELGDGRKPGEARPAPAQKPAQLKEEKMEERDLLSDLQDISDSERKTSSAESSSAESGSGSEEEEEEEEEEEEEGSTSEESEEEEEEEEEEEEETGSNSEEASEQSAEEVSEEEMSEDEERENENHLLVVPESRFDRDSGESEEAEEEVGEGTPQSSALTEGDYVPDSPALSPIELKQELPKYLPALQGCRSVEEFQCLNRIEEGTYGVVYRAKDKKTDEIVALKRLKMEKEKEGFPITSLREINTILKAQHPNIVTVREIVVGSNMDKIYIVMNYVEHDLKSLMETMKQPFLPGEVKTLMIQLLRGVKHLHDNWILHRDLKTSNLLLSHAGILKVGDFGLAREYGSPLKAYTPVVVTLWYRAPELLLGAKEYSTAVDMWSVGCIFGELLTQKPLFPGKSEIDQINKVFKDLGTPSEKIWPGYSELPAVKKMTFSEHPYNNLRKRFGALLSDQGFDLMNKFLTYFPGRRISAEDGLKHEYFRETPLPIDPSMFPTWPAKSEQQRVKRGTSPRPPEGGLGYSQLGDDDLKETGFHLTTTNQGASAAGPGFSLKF
Chain of 5'-AMP-activated protein kinase catalytic subunit alpha-1 (Q13131 whole entry, looked up): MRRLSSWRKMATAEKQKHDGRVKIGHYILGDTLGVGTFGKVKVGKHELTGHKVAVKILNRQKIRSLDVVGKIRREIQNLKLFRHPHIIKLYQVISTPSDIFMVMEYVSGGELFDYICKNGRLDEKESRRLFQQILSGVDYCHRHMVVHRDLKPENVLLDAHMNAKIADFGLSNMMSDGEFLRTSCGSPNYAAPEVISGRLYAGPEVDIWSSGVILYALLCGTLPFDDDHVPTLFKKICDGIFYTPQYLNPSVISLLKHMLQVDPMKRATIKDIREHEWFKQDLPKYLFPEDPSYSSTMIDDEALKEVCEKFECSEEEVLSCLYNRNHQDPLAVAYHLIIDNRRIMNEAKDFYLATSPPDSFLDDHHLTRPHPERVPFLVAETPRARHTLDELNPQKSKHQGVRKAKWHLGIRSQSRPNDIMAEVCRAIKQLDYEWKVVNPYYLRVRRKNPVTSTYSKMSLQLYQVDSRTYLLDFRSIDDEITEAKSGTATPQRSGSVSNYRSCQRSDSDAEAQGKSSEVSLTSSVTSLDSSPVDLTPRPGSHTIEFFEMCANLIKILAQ

As to `CCN(CC)CCCCNc1ncc2cc(-c3cc(OC)cc(OC)c3)c(NC(=O)NC(C)(C)C)nc2n1`, the % of control on Aurora kinase B was 100%.

In the case of `COc1cc(Nc2nc(C)cc(-c3cnn4nc(OC)ccc34)n2)cc(C(F)(F)F)c1`, the % of control in assay [1] came out at 100%.

For the molecule `Cn1cc(-n2cnc3c(NCc4nc5cc(Cl)c(Cl)cc5[nH]4)nc(N4CCOCC4)nc32)cn1`, the figures for the % of inhibition in [2] and in assay [3] were -19.5% and -13.2%, respectively. Also, the % of control on Ephrin type-A receptor 4 is -5.33%.

As to `CC[C@@H]1[C@H](F)C(=O)N[C@@H]1COc1nccc2cc(C(N)=O)c(OC)cc12` [ZIMLOVISERTIB], the % of inhibition in [4] was 8.3%.

For the molecule `COCC(=O)NC/C=C/c1ccc2ncnc(Nc3ccc(Oc4ccc(C)nc4)c(C)c3)c2c1` [CP-724714], the % of control in assay [5] is 76%.

As for `N#Cc1cccc(-c2c[nH]c3ncnc(N4CCOCC4)c23)c1`, the % of control in assay [6] stood at 71%.

Regarding `C=CC(=O)Nc1ccc(C(=O)Nc2[nH]nc3c2CN(C(=O)N[C@H](CN(C)C)c2ccccc2)C3(C)C)cc1`, the % of engagement in assay [7] (Selectivity number of off-targets 0.0, Selectivity number of targets 233.0, Source Knowledge https://www.sciencedirect.com/science/article/pii/S2451945619300674?via%3Dihub) came to 12.6%; in [7] it was 13.2%.
